Experimental data: ChEMBL document CHEMBL3045245, “Synthesis and antitumor activities of certain novel 2-amino-9-(4-halostyryl)-4H-pyrano[3,2-h]quinoline derivatives” (Med Chem Res, 2012)
In brackets after ≈: the same amount, converted by molar mass.

Experiments:
HepG2 [1] = assay: Cytotoxicity against Homo sapiens (human) HepG2 cells after 48 hr by MTT assay; assay type: functional, cell-based; conditions: HepG2, 48 h
HepG2 [2] = assay: Cytotoxicity against Homo sapiens (human) HepG2 cells assessed as cell viability at 1.56 ug/ml after 48 hr by MTT assay; assay type: functional; conditions: HepG2, 48 h, read-out: Activity
HepG2 [3] = assay: Cytotoxicity against Homo sapiens (human) HepG2 cells assessed as cell viability at 6.25 ug/ml after 48 hr by MTT assay; assay type: functional; conditions: HepG2, 48 h, read-out: Activity
HepG2 [4] = assay: Cytotoxicity against Homo sapiens (human) HepG2 cells assessed as cell viability at 3.125 ug/ml after 48 hr by MTT assay; assay type: functional; conditions: HepG2, 48 h, read-out: Activity
HepG2 [5] = assay: Cytotoxicity against Homo sapiens (human) HepG2 cells assessed as cell viability at 25 ug/ml after 48 hr by MTT assay; assay type: functional; conditions: HepG2, 48 h, read-out: Activity
HepG2 [6] = assay: Cytotoxicity against Homo sapiens (human) HepG2 cells assessed as cell viability at 12.5 ug/ml after 48 hr by MTT assay; assay type: functional; conditions: HepG2, 48 h, read-out: Activity
[7] = Cytotoxicity against Homo sapiens (human) HCT cells after 48 hr by MTT assay; assay type: functional, cell-based
HepG2 [8] = assay: Cytotoxicity against Homo sapiens (human) HepG2 cells assessed as cell viability at 50 ug/ml after 48 hr by MTT assay; assay type: functional; conditions: HepG2, 48 h, read-out: Activity
[9] = Cytotoxicity against Homo sapiens (human) HCT cells assessed as cell viability at 1.56 ug/ml after 48 hr by MTT assay; assay type: functional; conditions: read-out: Activity
[10] = Cytotoxicity against Homo sapiens (human) HCT cells assessed as cell viability at 3.125 ug/ml after 48 hr by MTT assay; assay type: functional; conditions: read-out: Activity
[11] = Cytotoxicity against Homo sapiens (human) HCT cells assessed as cell viability at 6.25 ug/ml after 48 hr by MTT assay; assay type: functional; conditions: read-out: Activity
[12] = Cytotoxicity against Homo sapiens (human) HCT cells assessed as cell viability at 12.5 ug/ml after 48 hr by MTT assay; assay type: functional; conditions: read-out: Activity
[13] = Cytotoxicity against Homo sapiens (human) HCT cells assessed as cell viability at 25 ug/ml after 48 hr by MTT assay; assay type: functional; conditions: read-out: Activity
[14] = Cytotoxicity against Homo sapiens (human) HCT cells assessed as cell viability at 50 ug/ml after 48 hr by MTT assay; assay type: functional; conditions: read-out: Activity
MCF7 [15] = assay: Cytotoxicity against Homo sapiens (human) MCF7 cells after 48 hr by MTT assay; assay type: functional, cell-based; conditions: MCF7, 48 h
MCF7 [16] = assay: Cytotoxicity against Homo sapiens (human) MCF7 cells assessed as cell viability at 1.56 ug/ml after 48 hr by MTT assay; assay type: functional; conditions: MCF7, 48 h, read-out: Activity
MCF7 [17] = assay: Cytotoxicity against Homo sapiens (human) MCF7 cells assessed as cell viability at 3.125 ug/ml after 48 hr by MTT assay; assay type: functional; conditions: MCF7, 48 h, read-out: Activity
MCF7 [18] = assay: Cytotoxicity against Homo sapiens (human) MCF7 cells assessed as cell viability at 6.25 ug/ml after 48 hr by MTT assay; assay type: functional; conditions: MCF7, 48 h, read-out: Activity
MCF7 [19] = assay: Cytotoxicity against Homo sapiens (human) MCF7 cells assessed as cell viability at 12.5 ug/ml after 48 hr by MTT assay; assay type: functional; conditions: MCF7, 48 h, read-out: Activity
MCF7 [20] = assay: Cytotoxicity against Homo sapiens (human) MCF7 cells assessed as cell viability at 25 ug/ml after 48 hr by MTT assay; assay type: functional; conditions: MCF7, 48 h, read-out: Activity
MCF7 [21] = assay: Cytotoxicity against Homo sapiens (human) MCF7 cells assessed as cell viability at 50 ug/ml after 48 hr by MTT assay; assay type: functional; conditions: MCF7, 48 h, read-out: Activity

| Structure (SMILES) | IC50 (HepG2 [1]) [µg/mL] | viability at 1.56 µg/mL (HepG2 [2]) [%] | viability at 6.25 µg/mL (HepG2 [3]) [%] | viability at 3.125 µg/mL (HepG2 [4]) [%] | viability at 25 µg/mL (HepG2 [5]) [%] | viability at 12.5 µg/mL (HepG2 [6]) [%] | IC50 [7] [µg/mL] | viability at 50 µg/mL (HepG2 [8]) [%] | viability at 1.56 µg/mL [9] [%] | viability at 3.125 µg/mL [10] [%] | viability at 6.25 µg/mL [11] [%] | viability at 12.5 µg/mL [12] [%] | viability at 25 µg/mL [13] [%] | viability at 50 µg/mL [14] [%] | IC50 (MCF7 [15]) [µg/mL] | viability at 1.56 µg/mL (MCF7 [16]) [%] | viability at 3.125 µg/mL (MCF7 [17]) [%] | viability at 6.25 µg/mL (MCF7 [18]) [%] | viability at 12.5 µg/mL (MCF7 [19]) [%] | viability at 25 µg/mL (MCF7 [20]) [%] | other results |
| --- | --- | --- | --- | --- | --- | --- | --- | --- | --- | --- | --- | --- | --- | --- | --- | --- | --- | --- | --- | --- | --- |
| N#CC1=C(N)Oc2c(ccc3ccc(/C=C/c4ccc(F)cc4)nc23)C1c1ccc(Cl)cc1 (stereo unspecified) | > 50 | 100 | 96.2 | 98.9 | 78.3 | 84.6 | 43.8 (≈ 96.5 µM) | 56.4 | 100 | 98.8 | 95.2 | 86.9 | 62.5 | 41.3 | 38.6 (≈ 85 µM) | 99.3 | 97.9 | 91.8 | 86.7 | 79.4 | viability at 50 µg/mL (MCF7 [21]): 28.5% |
| N#CC1=C(N)Oc2c(ccc3ccc(/C=C/c4ccc(F)cc4)nc23)C1c1ccc(Br)cc1 (stereo unspecified) | > 50 | 100 | 97.2 | 98.9 | 74.8 | 83.4 | > 50 | 63.4 | 100 | 98.6 | 94.8 | 91.1 | 83.4 | 57.6 | 42.5 (≈ 85.3 µM) | 100 | 96.9 | 91.8 | 80.2 | 67.8 | viability at 50 µg/mL (MCF7 [21]): 39.5% |
| CC[C@]1(O)C[C@@H]2CN(CCc3c([nH]c4ccccc34)[C@@](C(=O)OC)(c3cc4c(cc3OC)N(C)[C@H]3[C@@](O)(C(=O)OC)[C@H](OC(C)=O)[C@]5(CC)C=CCN6CC[C@]43[C@@H]65)C2)C1 [VINBLASTINE] | 4.6 (≈ 5.67 µM) | 72.1 | 45.1 | 55 | 16.1 | 24.2 | 2.6 (≈ 3.21 µM) | 14.4 | 53.4 | 47.5 | 38.1 | 28.2 | 21.7 | 16.3 | 6.1 (≈ 7.52 µM) | 76.2 | 60.4 | 48.8 | 29.6 | 15.2 | viability at 50 µg/mL (MCF7 [21]): 7.82% |
| CCOC(=O)C1=C(N)Oc2c(ccc3ccc(/C=C/c4ccc(Cl)cc4)nc23)C1c1ccc(Br)cc1 (stereo unspecified) | 28.6 (≈ 50.9 µM) | 89.4 | 69.7 | 76.3 | 53.4 | 61.9 | 20.4 (≈ 36.3 µM) | 39.8 | 82.9 | 74.3 | 70.4 | 61.3 | 45.8 | 30.7 | 10.3 (≈ 18.3 µM) | 80.9 | 76 | 63.5 | 45.6 | 37.9 | viability at 50 µg/mL (MCF7 [21]): 29.7% |
| CCOC(=O)C1=C(N)Oc2c(ccc3ccc(/C=C/c4ccc(F)cc4)nc23)C1c1ccc(Br)cc1 (stereo unspecified) | 37.1 (≈ 68 µM) | 97.1 | 83.3 | 94.6 | 62.9 | 76.4 | 26.1 (≈ 47.9 µM) | 34.6 | 100 | 98.5 | 84.9 | 78.7 | 53.7 | 17.4 | 38.4 (≈ 70.4 µM) | 99.3 | 93.9 | 85.5 | 74.6 | 67 | viability at 50 µg/mL (MCF7 [21]): 37.6% |
| CCOC(=O)C1=C(N)Oc2c(ccc3ccc(/C=C/c4ccc(Br)cc4)nc23)C1c1ccc(Br)cc1 (stereo unspecified) | 6.1 (≈ 10.1 µM) | 79.6 | 48.6 | 61 | 36.1 | 42.2 | 12.8 (≈ 21.1 µM) | 23.4 | 86 | 76.6 | 62.8 | 52.2 | 31.4 | 26 | 2.4 (≈ 3.96 µM) | 62.3 | 45.5 | 31.6 | 23.8 | 17.9 | viability at 50 µg/mL (MCF7 [21]): 13% |
